Experimental findings from US20070259819A1, “Cosmetic Use of at Least Natural Tetrapeptide Ac-Ser-Asp-Lys-Pro or One of Its Analogs as a Skin Anti-Aging and Restructuring Agent” (Centre National De La Recherche Scientfique (CNRS), priority 2004, published 2007) are described below.

Assay type in all cases: cell-based
The test system of experiment [1] is human skin explants. Kind of experiment: General morphology of human skin explants (histology). The note with it: topical daily. The protocol:
(§1) This study was conducted on thirty six human skin explants obtained from breast plastic surgery.
(§2) All the explants were maintained in a state of survival in a culture medium for eight days. AcSDKP at a concentration of 10^−5 M or 10^−8 M in physiological serum was applied to the explants by topical route every day for one week. On days 2, 4, 6 and 8, three explants from each batch (control, +AcSDKP 10^−5 M+ AcSDKP 10^−8 M) were removed and prepared for histological studies. General morphology was examined and an evaluation of the expression of basal keratin (CK14), undifferentiated keratin (CK19), collagen III, collagen IV, fibronectin and glycosaminoglycan without an acid group was performed.

In experiment [2] the test system is basal keratin (CK14). As to the kind of experiment: Immunolabelling of keratin 14 in human skin explants. How it is done:
as §1, §2

Experiment [3] relates to undifferentiated keratin (CK19). Kind of experiment: Immunolabelling of keratin 19 in human skin explants. How it is done:
as §1, §2

For experiment [4], the system named is collagen III. Kind of experiment: Immunolabelling of collagen III in human skin explants. The protocol:
as §1, §2

Experiment [5] concerns collagen IV. Kind of experiment: Immunolabelling of collagen IV in human skin explants. The note with it: D6 and D8. The protocol:
as §1, §2

In experiment [6] the test system is fibronectin. As to the kind of experiment: Immunolabelling of fibronectin in human skin explants. How it is done:
as §1, §2

For experiment [7], the system named is glycosaminoglycan without an acid group. Kind of experiment: P.A.S. Alcian blue staining of glycosaminoglycans without acid groups in human skin explants. How it is done: as §1, §2
This effect, clearly visible at D6 and D8, is characterised by a PAS positive increase in the number of fibroblasts in the papillary dermis, especially in the band situated along the dermo-epidermal junction and by increased levels of GAGs in these fibroblasts.

Where [8] appears, read: topical daily, human skin explants, immunolabelling.

SMILES strings stand for the structures. “Also recorded” adds a separate entry of the source. Peptide text beside a SMILES is read from it.

As to `CC(=O)N[C@@H](CO)C(=O)N[C@@H](CC(=O)O)C(=O)N[C@@H](CCCCN)C(=O)N1CCC[C@H]1C(=O)O` [AcSDKP, CH3CO-Ser-Asp-Lys-Pro] (Ac-SDKP-OH), the “General morphology: epidermal structure” value in experiment [1] (10^-5 M and 10^-8 M, human skin explants) is given as “triggers stimulation of the epidermal structure as of D6 of treatment”. For the same compound, the “Increase in epidermal thickness” value in experiment [1] (10^-5 M compared with 10^-8 M) is given as “increase in epidermal thickness is greater”. For the same compound, the “Keratin 14 (CK14) restructuring effect” value in experiment [2] (10^-5 M compared with 10^-8 M) is listed as “restructuring effect is greater”. Also, the “Keratin 14 (CK14) expression” value in experiment [2] (setting [8]) was “gradual increase in the levels of this protein in the basal and superbasal position as of D4 of treatment”. Moreover, the “Keratin 19 (CK19) expression” value in experiment [3] (10^-5 M and 10^-8 M, topical daily, immunolabelling) is “overexpression of the skin's dermal attachments as of D6 of treatment”; in experiment [3] (10^-5 M compared with 10^-8 M), “less marked effect”. In addition, the “Collagen III expression” value in experiment [4] (10^-5 M, D8) was “very clear overexpression of collagen III in the papillary and reticular dermis”. Moreover, the “Collagen III levels” value in experiment [4] (10^-5 M, six days of treatment) is “very marked increase in collagen III levels in the papillary dermis along the dermo-epidermal junction”. Also, in experiment [4] (10^-8 M, D8), the “Collagen III level” value is “level of collagen III increases along the dermo-epidermal junction and forms a thicker collagen band”. For the same compound, in experiment [4] (10^-8 M, six days of treatment, compared with 10^-5 M), the “Collagen III expression along the dermo-epidermal junction” value is reported as “less pronounced”. The “Collagen IV levels in the basal membrane” value in experiment [5] (10^-5 M and 10^-8 M) was “less pronounced than that for type III collagen”. Moreover, in experiment [5] (10^-5 M compared with 10^-8 M), the “Increase in collagen IV levels” value is recorded as “higher”. In addition, the Fibronectin expression entry in experiment [6] (10^-5 M compared with 10^-8 M) was “greater activity”; in experiment [6] (setting [8]) it was “fibronectin network is denser and has thicker fibres; also recorded: triggers overexpression of this protein along a dermo-epidermal junction as well as in the papillary and reticular dermis”. Also, in experiment [7] (10^-5 M and 10^-8 M, clearly visible at D6 and D8), the “Glycosaminoglycan (GAGs) levels” value is reported as “significant increase in the levels of these compounds in the skin”. The “Glycosaminoglycan (GAGs) expression” value in experiment [7] (10^-5 M compared with 10^-8 M) is recorded as “higher level of activity”.
